The values that follow come from article PMC3115501 (Archives of biochemistry and biophysics, 2011).

Marks after values point to notes of the source that are not given here.

By kcat is commonly meant the maximal rate divided by the concentration of active sites.

The subject of series [1] is CYP3A4. Particulars: cited from earlier work.
In series [2] the target is T1, CYP3A4 (Homo sapiens, UniProt P08684, S18F). To be noted: cited from earlier work.
Series [3] deals with T1, CYP3A4. The series is described as follows: Redox potential measurements by cyclic voltammetry of purified CYP3A4. To be noted: 11 μM 3A4 complexed with 200 μM TST or 100 μM compound 1.
Series [4] deals with 3A4. Particulars: 3A4 in the presence of testosterone, reduction by NADPH/P450 reductase; cited from earlier work.

Turning to `CCC(C)n1ncn(-c2ccc(N3CCN(c4ccc(OCC5COC(Cn6cncn6)(c6ccc(Cl)cc6Cl)O5)cc4)CC3)cc2)c1=O` (centres unmarked) [Itraconazole, itraconazole], the kcat in series [1] was 0.27 min⁻¹. In series [2], the “rate of dissociation from the low-spin complex” value was 0.002 s⁻¹.
Turning to `C[C@]12CC[C@H]3[C@@H](CCC4=CC(=O)CC[C@@]43C)[C@@H]1CC[C@@H]2O` [Testosterone], in series [3], the “ks (rate of electron transfer / rate constant for reduction)” value was 5.6 s⁻¹ and the “α (electron transfer coefficient)” value is listed as 0.396. Besides, the “E^0 (formal potential)” value in series [3] (Equation 1) is -189 (3) ^e mV. Also, the “ΔEp, ½” value in series [3] (equation 2) is recorded as 157 (6) mV. In addition, in series [3] (listed as TST), the “ks (rate of electron transfer / rate constant for reduction)” value is 5.56 s⁻¹. In series [4], the “reduction rate, reported value” is 21 s⁻¹.
